Data reported in US20250171462A1 (NICO Therapeutics, Inc., priority 2022, published 2025).
Where two headings read alike, the source gives them in different places.

Target: T1, full-length SARM1 (FL-SARM1) (Homo sapiens, UniProt Q6SZW1)
T1 sequence (Q6SZW1 28-724): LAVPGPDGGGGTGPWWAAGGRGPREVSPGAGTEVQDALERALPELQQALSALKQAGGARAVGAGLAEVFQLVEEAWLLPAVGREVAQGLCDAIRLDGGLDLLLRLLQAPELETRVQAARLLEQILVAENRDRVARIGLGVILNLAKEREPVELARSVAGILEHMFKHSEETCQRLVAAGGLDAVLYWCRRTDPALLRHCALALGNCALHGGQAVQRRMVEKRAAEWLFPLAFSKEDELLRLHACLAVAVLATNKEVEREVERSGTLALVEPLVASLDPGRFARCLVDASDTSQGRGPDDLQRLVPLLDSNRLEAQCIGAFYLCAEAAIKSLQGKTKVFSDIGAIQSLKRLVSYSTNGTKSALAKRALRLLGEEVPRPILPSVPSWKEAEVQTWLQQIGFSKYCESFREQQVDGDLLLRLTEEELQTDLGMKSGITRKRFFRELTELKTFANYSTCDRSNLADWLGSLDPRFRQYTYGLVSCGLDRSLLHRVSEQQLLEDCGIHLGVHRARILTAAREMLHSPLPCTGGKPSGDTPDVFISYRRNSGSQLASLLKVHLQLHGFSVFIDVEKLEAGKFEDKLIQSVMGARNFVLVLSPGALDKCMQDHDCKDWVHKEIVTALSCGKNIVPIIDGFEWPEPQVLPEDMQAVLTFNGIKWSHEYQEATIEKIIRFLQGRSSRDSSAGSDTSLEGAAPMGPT
Test: FL-SARM1 cellular lysate assay (NAD/NADH-Glo detection of remaining NAD+, NMN-activated)

[1] = Activity (μM) (IC50), 11 point curve
[2] = read-out: Activity (IC50 class), 11 point curve
[3] = Activity (IC50 class), 11 point curve

Experimental: Preparation of full-length SARM1 (FL-SARM1) lysate: HEK293T cells (ATCC: CRL-3216) were grown on 150 mm TC-treated dishes to 80-90% confluency in complete DMEM (DMEM (Thermo Fisher: 11965175) supplemented with 10% HI—FBS (VWR: 10802-772), 1× Pen/Strep (Thermo Fisher: 15140122), 1×NEAA (Thermo Fisher: 1140050), 1× glutamax (Thermo Fisher: 35050061), and 1 mM sodium pyruvate (Thermo Fisher: 11360070)) at 37° C. and 5% CO2. One hour prior to transfection, the media was replaced with fresh, 37° C. complete DMEM (20 mL per one 150 mm dish) supplemented with additional 10 mM glucose (Alfa Aesar AAJ60067EQE). Per one 150 mm dish, 30 μg FL-SARM1 (SEQ. ID. 1; cloned in-house) plasmid was dissolved in 1 mL DMEM at ambient temperature and were mixed by inverting the tube 8-10 times. 90 μL of GenJet™ in vitro DNA transfection reagent (Ver2) was dissolved in 1 mL DMEM at ambient temperature and were mixed by inverting the tube 8-10 times. The plasmid and transfection agent solutions were combined, mixed by 8-10 inversions and incubated for 10 minutes at ambient temperature. 2 mL of this transfection mixture was added to each dish containing HEK293T cells as prepared above followed by a gentle mixing of 4-5 horizontal rotations. The dishes were incubated at 37° C. and 5% CO2 for 24 h. The dishes were removed from the incubator, the medium was aspirated and the cells were scraped off using cell scrapers in ice-cold 1×PBS (5 mL/dish, Thermo Fisher Scientific 10010023). The collected cells were centrifuged at 300 g for 5 minutes at 4° C. The supernatant was aspirated and the pellet was frozen at −80° C. until needed. The cell pellet from 30 dishes was dissolved in 30 mL 1×PBS supplemented with 4 tablets of Complete, Mini EDTA-free protease inhibitor cocktail at 4° C. This mixture was sonicated on ice for 10 minutes at 50% amplitude with a 1 second on/1 second off interval using a Model 120 sonicator (Thermo Fisher Scientific, FB120110). The lysate was centrifuged at 16000 g for 10 minutes at 4° C.
To a white 384-well Proxiplate (PerkinElmer, PE-6008280) was added 50 nL/well of a DMSO solution containing test compounds followed by 7.5 μL/well of a 0.067 mg/mL solution of SARMi cellular lysate in reaction buffer (DPBS containing CHAPSO (0.1%) and fatty acid free BSA (0.032%)). The plate was centrifuged for 1 minute at 1000 RPM and then placed in an incubator at 23° C. for 15 minutes. To the wells were added 2.5 μL/well of a solution containing 40 M NAD^+ and 4 mM nicotinamide mononucleotide (NMN) in reaction buffer. The plate was centrifuged for 1 min at 1000 RPM, the plate was sealed and placed in an incubator at 23° C. for 3.5 hours before adding 3.5 μL/well of NAD/NADH-Glo™ solution (preparation as described by Promega using the extended detection protocol). The plate was centrifuged for 1 minute at 1000 RPM and then incubated at 23° C. for 20 minutes. 1 μL/well of a 3.625 mM solution of menadione in DMSO was added and the plate was centrifuged for 1 minute at 1000 RPM. Relative light units (RLU) were recorded using an Envision plate reader at a height of 6.5 mm.
IC50 values were calculated from an 11 point curve using ½ log dilutions using a four-parameter logistic regression curve fit.

Structure (SMILES) | IC50 [1] [µM] | IC50 [2] [µM] | IC50 [3] [µM]
Cc1ccc(NC(=O)N2CCCC(C)CC2)cc1-c1ncc(F)cn1 (racemic) [Example 213, N-(3-(5-fluoropyrimidin-2-yl)-4-methylphenyl)-4-methylazepane-1-carboxamide] | 0.2 | 0.0001 to 1 | –
Cc1ccc(NC(=O)N(C)C(c2ncccn2)C2CCC2)cc1-c1ncc(F)cn1 (racemic) [Example 214, 1-(cyclobutyl(pyrimidin-2-yl)methyl)-3-(3-(5-fluoropyrimidin-2-yl)-4-methylphenyl)-1-methylurea] | 3.9 | – | 1 to 10
Cc1ccc(NC(=O)N2C[C@@H]3CCC[C@@H]32)cc1-c1ncc(F)cn1 (racemic) [Example 222, N-[3-(5-fluoropyrimidin-2-yl)-4-methylphenyl]-6-azabicyclo[3.2.0]heptane-6-carboxamide] | 3.4 | – | 1 to 10
Cc1ccc(NC(=O)N2CCOCCC2C)cc1-c1ncc(F)cn1 (racemic) [Example 225, N-[3-(5-fluoropyrimidin-2-yl)-4-methylphenyl]-5-methyl-1,4-oxazepane-4-carboxamide] | 32 | – | > 10
Cc1ccc(NC(=O)N2C[C@@H]3CCCC[C@@H]32)cc1-c1ncc(F)cn1 (racemic) [Example 226, N-[3-(5-fluoropyrimidin-2-yl)-4-methylphenyl]-7-azabicyclo[4.2.0]octane-7-carboxamide] | 1.5 | – | 1 to 10
Cc1ccc(NC(=O)N2[C@@H]3C[C@@H](C)C[C@@]2(COC(F)F)C3)cc1-c1ncc(F)cn1 (racemic) [Example 227, cis-1-(difluoromethoxymethyl)-N-[3-(5-fluoropyrimidin-2-yl)-4-methylphenyl]-3-methyl-6-azabicyclo[3.1.1]heptane-6-carboxamide] | 0.02 | 0.0001 to 1 | –
Cc1ccc(NC(=O)[C@H]2C[C@@H]2c2ccccc2)cc1-c1ncc(F)cn1 (racemic) [Example 257, trans-N-(3-(5-fluoropyrimidin-2-yl)-4-methylphenyl)-2-phenylcyclopropane-1-carboxamide] | 30 | – | > 10
Cc1ccc(NC(=O)C2CCC[C@@H](C)N2c2ccccn2)cc1-c1ncc(F)cn1 (mixture of isomers) [Example 258, cis-N-(3-(5-fluoropyrimidin-2-yl)-4-methylphenyl)-6-methyl-1-(pyridin-2-yl)piperidine-2-carboxamide] | 2.4 | – | 1 to 10
Cc1ccc(NC(=O)[C@@H]2CO[C@H](C(F)(F)F)CN2c2ccccn2)cc1-c1ncc(F)cn1 (racemic) [Example 272, cis-N-(3-(5-fluoropyrimidin-2-yl)-4-methylphenyl)-4-(pyridin-2-yl)-6-(trifluoromethyl) morpholine-3-carboxamide] | 1.1 | – | 1 to 10
Cc1ccc(NC(=O)[C@H]2CC[C@@H](C3CC3)N2c2ccccn2)cc1-c1ncc(F)cn1 (racemic) [Example 273, cis-5-cyclopropyl-N-(3-(5-fluoropyrimidin-2-yl)-4-methylphenyl)-1-(pyridin-2-yl)pyrrolidine-2-carboxamide] | 1.9 | – | 1 to 10
Cc1ccc(NC(=O)[C@@H]2CC[C@@H](C3CC3)N2c2ccccn2)cc1-c1ncc(F)cn1 (racemic) [Example 274, trans-5-cyclopropyl-N-(3-(5-fluoropyrimidin-2-yl)-4-methylphenyl)-1-(pyridin-2-yl)pyrrolidine-2-carboxamide] | 1.2 | – | 1 to 10
Cc1ccc(NC(=O)[C@@H]2C[C@H]3CC[C@@H]2N3c2ccccn2)cc1-c1ncc(F)cn1 (racemic) [Example 275, cis-N-(3-(5-fluoropyrimidin-2-yl)-4-methylphenyl)-7-(pyridin-2-yl)-7-azabicyclo[2.2.1]heptane-2-carboxamide] | 4.9 | – | 1 to 10
Cc1ccc(NC(=O)C2CCC(=O)N2c2ccccn2)cc1-c1ncc(F)cn1 (racemic) [Example 278, N-[3-(5-fluoropyrimidin-2-yl)-4-methylphenyl]-5-oxo-1-pyridin-2-ylpyrrolidine-2-carboxamide] | 17 | – | > 10
Cc1ccc(NC(=O)[C@@H]2CN(CC(F)(F)F)C[C@H]2c2ccccn2)cc1-c1ncc(F)cn1 (racemic) [Example 280, trans-N-[3-(5-fluoropyrimidin-2-yl)-4-methylphenyl]-4-pyridin-2-yl-1-(2,2,2-trifluoroethyl)pyrrolidine-3-carboxamide] | 28 | – | > 10
Cc1ccc(NC(=O)[C@H]2C[C@@H]2C2CC2)cc1-c1cccnn1 (racemic) [Example 283, trans-2-cyclopropyl-N-(4-methyl-3-pyridazin-3-ylphenyl)cyclopropane-1-carboxamide] | 11 | – | > 10
Cc1ccc(NC(=O)[C@@H]2C[C@@H]2C2CC2)cc1-c1cccnn1 (racemic) [Example 284, cis-2-cyclopropyl-N-(4-methyl-3-pyridazin-3-ylphenyl)cyclopropane-1-carboxamide] | 1.8 | – | 1 to 10
Cc1ccc(NC(=O)C2CCc3cccnc32)cc1-c1ncc(F)cn1 (racemic) [Example 290, N-[3-(5-fluoropyrimidin-2-yl)-4-methylphenyl]-6,7-dihydro-5H-cyclopenta[b]pyridine-7-carboxamide] | 17 | – | > 10
Cc1ccc(NC(=O)C2CC23CCC3)cc1-c1cccnn1 (racemic) [Example 293, N-(4-methyl-3-pyridazin-3-ylphenyl)spiro[2.3] hexane-2-carboxamide] | 2.4 | – | 1 to 10
Cc1ccc(NC(=O)C(C)C2CCC2)cc1-c1cccnn1 (racemic) [Example 297, 2-cyclobutyl-N-(4-methyl-3-pyridazin-3-ylphenyl)propanamide] | 6.5 | – | 1 to 10
Cc1ccc(NC(=O)C(Cc2ncccn2)C2CCC2)cc1-c1ncc(F)cn1 (racemic) [Example 302, 2-cyclobutyl-N-(3-(5-fluoropyrimidin-2-yl)-4-methylphenyl)-3-(pyrimidin-2-yl)propanamide] | 3 | – | 1 to 10
COCC1COc2ccccc2CN1C(=O)Nc1ccc(C)c(-c2ncc(F)cn2)c1 (racemic) [Example 309, N-(3-(5-fluoropyrimidin-2-yl)-4-methylphenyl)-3-(methoxymethyl)-2,3-dihydrobenzo[f][1,4] oxazepine-4(5H)-carboxamide] | 1.1 | – | 1 to 10
CC1CCCCCN1C(=O)Nc1ccc(C(F)(F)F)c(-c2ncc(F)cn2)c1 (racemic) [Example 312, N-(3-(5-fluoropyrimidin-2-yl)-4-(trifluoromethyl)phenyl)-2-methylazepane-1-carboxamide] | 1.4 | – | 1 to 10
Cc1ccc(NC(=O)C2CCC3(CC3)CN2c2ccccn2)cc1-c1ncc(F)cn1 (racemic) [Example 314] | 1.2 | – | 1 to 10
Cc1ccc(NC(=O)[C@H]2CC[C@@H](C)CN2c2ncccn2)cc1-c1ncccn1 (racemic) [Example 327] | 0.5 | 0.0001 to 1 | –
Cc1ccc(NC(=O)N2CC3CC(C)C2C3)cc1-c1ccccn1 (single isomer, unassigned) [Example 12, 6-methyl-N-(4-methyl-3-(pyridin-2-yl)phenyl)-2-azabicyclo[2.2.1]heptane-2-carboxamide] | 2 | – | 1 to 10
Cc1ccc(NC(=O)N2C3C[C@@H]2CC[C@@H]3C)cc1-c1ccccn1 (single isomer, unassigned) [Example 47, cis-2-methyl-N-(4-methyl-3-(pyridin-2-yl)phenyl)-6-azabicyclo[3.1.1]heptane-6-carboxamide] | 0.06 | 0.0001 to 1 | –
Cc1ccc(NC(=O)N2C3C[C@@H]2CC[C@H]3C)cc1-c1ccccn1 (single isomer, unassigned) [Example 48, trans-2-methyl-N-(4-methyl-3-(pyridin-2-yl)phenyl)-6-azabicyclo[3.1.1]heptane-6-carboxamide] | 0.1 | 0.0001 to 1 | –
Cc1ccc(NC(=O)N2C3C[C@@H]2CC[C@H]3C)cc1-c1ccccn1 (single isomer, unassigned) [Example 49, trans-2-methyl-N-(4-methyl-3-(pyridin-2-yl)phenyl)-6-azabicyclo[3.1.1]heptane-6-carboxamide] | 0.2 | 0.0001 to 1 | –
Cc1ccc(NC(=O)N2C3CC2CC(C(F)(F)F)C3)cc1-c1ccccn1 (single isomer, unassigned) [Example 86, N-(4-methyl-3-pyridin-2-ylphenyl)-3-(trifluoromethyl)-6-azabicyclo[3.1.1]heptane-6-carboxamide] | 0.01 | 0.0001 to 1 | –
Cc1ccc(NC(=O)[C@@H]2[C@@H]3CC[C@H]2N(CC(F)(F)F)C3)cc1-c1ccccn1 (single isomer, unassigned) [Example 104, trans-N-(4-methyl-3-(pyridin-2-yl)phenyl)-2-(2,2,2-trifluoroethyl)-2-azabicyclo[2.2.1]heptane-7-carboxamide] | 2.6 | – | 1 to 10
